How the values were obtained:
Type in all cases: in vivo
Abutilon theophrasti [1] = test: Pre-emergence herbicidal action against ABUTH; conditions: visual score after 3 weeks vs untreated controls
How it was run: (§1)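 Herbicidal effect was assessed 3 weeks after treatment by visual comparison with untreated controls, 100% denoting dead plants. Aqueous WP or EC preparations had been applied at 600 to 800 l/ha with 0.2% wetting agent to the soil covering freshly sown seeds.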

Alopecurus myosuroides [2] = test: Pre-emergence herbicidal action against ALOMY; conditions: visual score after 3 weeks vs untreated controls
How it was run: as §1

Amaranthus retroflexus [3] = test: Pre-emergence herbicidal action against AMARE; conditions: visual score after 3 weeks vs untreated controls
How it was run: as §1

Avena fatua [4] = test: Pre-emergence herbicidal action against AVEFA; conditions: visual score after 3 weeks vs untreated controls
How it was run: as §1

Cyperus esculentus [5] = test: Pre-emergence herbicidal action against CYPES; conditions: visual score after 3 weeks vs untreated controls
How it was run: as §1

Echinochloa crus-galli [6] = test: Pre-emergence herbicidal action against ECHCG; conditions: visual score after 3 weeks vs untreated controls
How it was run: as §1

Matricaria inodora [7] = test: Pre-emergence herbicidal action against MATIN; conditions: visual score after 3 weeks vs untreated controls
How it was run: as §1

Pharbitis purpurea [8] = test: Pre-emergence herbicidal action against PHBPU; conditions: visual score after 3 weeks vs untreated controls
How it was run: as §1

Hordeum murinum [9] = test: Pre-emergence herbicidal action against HORMU; conditions: visual score after 3 weeks vs untreated controls
How it was run: as §1

Lolium rigidum [10] = test: Pre-emergence herbicidal action against LOLRI
How it was run: as §1

Polygonum convolvulus [11] = test: Pre-emergence herbicidal action against POLCO
How it was run: as §1

Setaria viridis [12] = test: Pre-emergence herbicidal action against SETVI
How it was run: as §1

Stellaria media [13] = test: Pre-emergence herbicidal action against STEME
How it was run: as §1

Veronica persica [14] = test: Pre-emergence herbicidal action against VERPE
How it was run: as §1

Viola tricolor [15] = test: Pre-emergence herbicidal action against VIOTR
How it was run: as §1

Abutilon theophrasti [16] = test: Post-emergence herbicidal action against ABUTH
How it was run: (§2)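 Herbicidal effect was scored visually in percent after about 3 weeks in the greenhouse. Plants had been raised in sandy loam and treated post-emergence at the one-leaf stage with formulated compound at 600 to 800 l/ha water plus 0.2% wetting agent.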

Alopecurus myosuroides [17] = test: Post-emergence herbicidal action against ALOMY
How it was run: as §2

Amaranthus retroflexus [18] = test: Post-emergence herbicidal action against AMARE; conditions: visual assessment about 3 weeks after treatment
How it was run: as §2

Avena fatua [19] = test: Post-emergence herbicidal action against AVEFA; conditions: 80 g/ha, visual assessment about 3 weeks after treatment
How it was run: as §2

Cyperus esculentus [20] = test: Post-emergence herbicidal action against CYPES; conditions: 80 g/ha, visual assessment about 3 weeks after treatment
How it was run: as §2

Echinochloa crus-galli [21] = test: Post-emergence herbicidal action against ECHCG; conditions: visual assessment about 3 weeks after treatment
How it was run: as §2

Matricaria inodora [22] = test: Post-emergence herbicidal action against MATIN; conditions: visual assessment about 3 weeks after treatment
How it was run: as §2

Pharbitis purpurea [23] = test: Post-emergence herbicidal action against PHBPU; conditions: visual assessment about 3 weeks after treatment
How it was run: as §2

Hordeum murinum [24] = test: Post-emergence herbicidal action against HORMU
How it was run: as §2

Lolium rigidum [25] = test: Post-emergence herbicidal action against LOLRI; conditions: 80 g/ha
How it was run: as §2

Polygonum convolvulus [26] = test: Post-emergence herbicidal action against POLCO; conditions: 80 g/ha, visual assessment about 3 weeks after treatment
How it was run: as §2

Setaria viridis [27] = test: Post-emergence herbicidal action against SETVI; conditions: visual assessment about 3 weeks after treatment
How it was run: as §2

Stellaria media [28] = test: Post-emergence herbicidal action against STEME; conditions: visual assessment about 3 weeks after treatment
How it was run: as §2

Veronica persica [29] = test: Post-emergence herbicidal action against VERPE; conditions: 80 g/ha, visual assessment about 3 weeks after treatment
How it was run: as §2

Viola tricolor [30] = test: Post-emergence herbicidal action against VIOTR
How it was run: as §2

In the case of `Cn1nnnc1NC(=O)c1ccc(C(F)(F)F)c(C(=O)n2cccn2)c1Cl` [Example 1-153], the “Pre-emergence action against ABUTH” value (Abutilon theophrasti [1]; 20 g/ha) was 100%, the “Pre-emergence action against ABUTH” value (Abutilon theophrasti [1]; 80 g/ha) was 100% and the “Pre-emergence action against ABUTH” value (Abutilon theophrasti [1]; Dosage column 320 g/ha (heading prints 3200 g/ha)) was 100%. For the same compound, the “Pre-emergence action against ALOMY” value (Alopecurus myosuroides [2]; 80 g/ha) was 80%, the “Pre-emergence action against ALOMY” value (Alopecurus myosuroides [2]; 320 g/ha) was 100% and the “Pre-emergence action against AMARE” value (Amaranthus retroflexus [3]; 20 g/ha) was 100%. The “Pre-emergence action against AMARE” value (Amaranthus retroflexus [3]; 80 g/ha) was 100%, the “Pre-emergence action against AMARE” value (Amaranthus retroflexus [3]; 320 g/ha) was 100% and the “Pre-emergence action against AVEFA” value (Avena fatua [4]; 80 g/ha) was 100%. For the same compound, the “Pre-emergence action against AVEFA” value (Avena fatua [4]; 320 g/ha) was 100%, the “Pre-emergence action against CYPES” value (Cyperus esculentus [5]; 20 g/ha) was 100% and the “Pre-emergence action against CYPES” value (Cyperus esculentus [5]; 80 g/ha) was 100%. The “Pre-emergence action against CYPES” value (Cyperus esculentus [5]; 320 g/ha) was 100%, the “Pre-emergence action against ECHCG” value (Echinochloa crus-galli [6]; 20 g/ha) was 100% and the “Pre-emergence action against ECHCG” value (Echinochloa crus-galli [6]; 80 g/ha) was 100%. For the same compound, the “Pre-emergence action against ECHCG” value (Echinochloa crus-galli [6]; 320 g/ha) was 100%, the “Pre-emergence action against MATIN” value (Matricaria inodora [7]; 20 g/ha) was 90% and the “Pre-emergence action against MATIN” value (Matricaria inodora [7]; 80 g/ha) was 100%. For the same compound, the “Pre-emergence action against MATIN” value (Matricaria inodora [7]; 320 g/ha) was 100%, the “Pre-emergence action against PHBPU” value (Pharbitis purpurea [8]; 80 g/ha) was 90% and the “Pre-emergence action against PHBPU” value (Pharbitis purpurea [8]; 320 g/ha) was 90%. For the same compound, the “Pre-emergence action against HORMU” value (Hordeum murinum [9]; 80 g/ha) was 80%, the “Pre-emergence action against HORMU” value (Hordeum murinum [9]; 320 g/ha) was 100% and the “Pre-emergence action against LOLRI” value (Lolium rigidum [10]; 80 g/ha) was 80%. The “Pre-emergence action against LOLRI” value (Lolium rigidum [10]; 320 g/ha) was 90%, the “Pre-emergence action against POLCO” value (Polygonum convolvulus [11]; 80 g/ha) was 90% and the “Pre-emergence action against POLCO” value (Polygonum convolvulus [11]; 320 g/ha) was 100%. The “Pre-emergence action against SETVI” value (Setaria viridis [12]; 20 g/ha) was 100%, the “Pre-emergence action against SETVI” value (Setaria viridis [12]; 80 g/ha) was 100% and the “Pre-emergence action against SETVI” value (Setaria viridis [12]; 320 g/ha) was 100%. For the same compound, the “Pre-emergence action against STEME” value (Stellaria media [13]; 20 g/ha) was 90%, the “Pre-emergence action against STEME” value (Stellaria media [13]; 80 g/ha) was 90% and the “Pre-emergence action against STEME” value (Stellaria media [13]; 320 g/ha) was 100%. For the same compound, the “Pre-emergence action against VERPE” value (Veronica persica [14]; 80 g/ha) was 90%, the “Pre-emergence action against VERPE” value (Veronica persica [14]; 320 g/ha) was 100% and the “Pre-emergence action against VIOTR” value (Viola tricolor [15]; 80 g/ha) was 100%. For the same compound, the “Pre-emergence action against VIOTR” value (Viola tricolor [15]; 320 g/ha) was 100%, the “Post-emergence action against ABUTH” value (Abutilon theophrasti [16]; 5 g/ha) was 90% and the “Post-emergence action against ABUTH” value (Abutilon theophrasti [16]; 20 g/ha) was 90%. The “Post-emergence action against ABUTH” value (Abutilon theophrasti [16]; 80 g/ha) was 90%, the “Post-emergence action against ALOMY” value (Alopecurus myosuroides [17]; 5 g/ha) was 80% and the “Post-emergence action against ALOMY” value (Alopecurus myosuroides [17]; 20 g/ha) was 90%. For the same compound, the “Post-emergence action against ALOMY” value (Alopecurus myosuroides [17]; 80 g/ha) was 90%, the “Post-emergence action against AMARE in %” value (Amaranthus retroflexus [18]; 5 g/ha) was 100% and the “Post-emergence action against AMARE in %” value (Amaranthus retroflexus [18]; 20 g/ha) was 100%. The “Post-emergence action against AMARE in %” value (Amaranthus retroflexus [18]; 80 g/ha) was 100%, the “Post-emergence action against AVEFA in %” value (Avena fatua [19]) was 100% and the “Post-emergence action against CYPES in %” value (Cyperus esculentus [20]) was 90%. For the same compound, the “Post-emergence action against ECHCG in %” value (Echinochloa crus-galli [21]; 5 g/ha) was 90%, the “Post-emergence action against ECHCG in %” value (Echinochloa crus-galli [21]; 20 g/ha) was 100% and the “Post-emergence action against ECHCG in %” value (Echinochloa crus-galli [21]; 80 g/ha) was 100%. The “Post-emergence action against MATIN in %” value (Matricaria inodora [22]; 5 g/ha) was 90%, the “Post-emergence action against MATIN in %” value (Matricaria inodora [22]; 20 g/ha) was 90% and the “Post-emergence action against MATIN in %” value (Matricaria inodora [22]; 80 g/ha) was 100%. The “Post-emergence action against PHBPU in %” value (Pharbitis purpurea [23]; 5 g/ha) was 80%, the “Post-emergence action against PHBPU in %” value (Pharbitis purpurea [23]; 20 g/ha) was 90% and the “Post-emergence action against PHBPU in %” value (Pharbitis purpurea [23]; 80 g/ha) was 90%. The “Post-emergence action against HORMU in %” value (Hordeum murinum [24]; 20 g/ha) was 80%, the “Post-emergence action against HORMU in %” value (Hordeum murinum [24]; 80 g/ha) was 90% and the “Post-emergence action against LOLRI in %” value (Lolium rigidum [25]) was 90%. For the same compound, the “Post-emergence action against POLCO in %” value (Polygonum convolvulus [26]) was 90%, the “Post-emergence action against SETVI in %” value (Setaria viridis [27]; 20 g/ha) was 100% and the “Post-emergence action against SETVI in %” value (Setaria viridis [27]; 80 g/ha) was 100%. The “Post-emergence action against STEME in %” value (Stellaria media [28]; 5 g/ha) was 100%, the “Post-emergence action against STEME in %” value (Stellaria media [28]; 20 g/ha) was 100% and the “Post-emergence action against STEME in %” value (Stellaria media [28]; 80 g/ha) was 100%. The “Post-emergence action against VERPE in %” value (Veronica persica [29]) was 80%, the “Post-emergence action against VIOTR in %” value (Viola tricolor [30]; 5 g/ha) was 80% and the “Post-emergence action against VIOTR in %” value (Viola tricolor [30]; 20 g/ha) was 90%. The “Post-emergence action against VIOTR in %” value (Viola tricolor [30]; 80 g/ha) was 90%.
